We go through one compound from BindingDB's records for doi:10.1016/j.bmcl.2009.10.094 (Amgen, 2009).

The test is described as follows: Antagonist activity at human CRTH2 receptor expressed in CEM cell assessed as inhibition of PGD2-induced cell migration after 3 hrs by transwell migration assay.

As to `CC(=O)N(c1ccccc1)[C@@H]1C[C@H](C)N(C(=O)c2ccccc2)c2ccccc21` (racemic) [(+/-)-cis-N-(1-benzoyl-2-methyl-1,2,3,4-tetrahydroquinolin-4-yl)-N-phenylacetamide], the concentration giving a half-maximal response (EC50) (usually the concentration at which the effect is half-maximal) worked out at 11 nM.
